Data as given in publication PMC8956739, “A synthetic lipopeptide targeting top-priority multidrug-resistant Gram-negative pathogens” (Nature Communications, 2022).
Like-named read-outs stand apart in the source and are kept apart here. Residues, ends and D or L forms follow the SMILES beside them.

What was measured:
[1] = tested on: P. aeruginosa PAM1723 (overexpresses MexAB-OprM); type: cell-based, Pseudomonas aeruginosa; settings: Leu-Nap hydrolysis
Description: (§1) Bacterial strains were seeded in 50 mL of Luria-Bertani (LB) broth at OD600 0.05 and grown at 37 °C for 3-4 h until an OD600 of 0.6–0.8 was achieved. Bacterial cells were washed twice with 25 mL of buffer (50 mM sodium phosphate, 0.5% glucose, pH 7, with or without 1 mM Mg^2+), resuspended in 10 mL of the buffer, and then adjusted to an OD600 of 0.4. […] Bacterial suspension (50 μL, OD600 0.4) in buffer was added to the lipopeptide solutions and the rate of substrate hydrolysis was measured at 490 nm.
(§2) Activity of F365 and polymyxin B in the efflux inhibition assay.
(§3) One of the consequences of disruption/permeabilization of the cytoplasmic membrane by polymyxins is the dissipation of the proton gradient across the cytoplasmic membrane. […]
(§4) these compounds are expected to inhibit proton-dependent transport activity across the cytoplasmic membrane including efflux. Efflux activity and its inhibition by F365 was assessed by examining the rates of hydrolysis of a fluorogenic substrate of efflux pumps, Leu-Nap, by intact cells of P. aeruginosa. For these experiments we used two strains of P. aeruginosa, PAM1723 and PAM1626. PAM1723 overexpresses the efflux pump MexAB-OprM and PAM1626 lacks this pump as well as several other pumps that extrude Leu-Nap. […] The rate of production of β-naphthylamine (recorded as an increase in fluorescence) is limited by the rate of entry of Leu-Nap into the cells. […]

[2] = in vivo
Description: The plasma pharmacokinetic profiles of F365 and polymyxin B were assessed in Swiss mice (female, 7-week-old, 22–28 g) after a single intraperitoneal dose (5 mg/kg, n = 3). Blood samples were collected at various time points over 24 h post dosing for analysis. The plasma pharmacokinetic profiles of F365 (n = 5) and polymyxin B (1 mg/kg, n = 11) in Sprague-Dawley rats (male, 10-week-old, 280 to 330 g) were assessed after intravenous administration (1 min) of F365 and polymyxin B via an indwelling jugular vein cannula. Blood samples (~0.3 mL) were collected via an indwelling carotid artery cannula at various time points over 24 h post dosing. Urine samples were collected at 4 °C using a metabolic cage during the period between 0 and 24 h post dosing. Concentrations of F365 and polymyxin B in plasma and urine samples were determined using LC-MS/MS and pharmacokinetic analysis was conducted using WinNonlin (Pharsight Corp., Mountain View, CA). The ELF pharmacokinetic profiles of F365 and polymyxin B was determined in neutropenic Swiss mice (female, 7-week-old, 22–28 g) after subcutaneous injection (40 mg/kg, n = 3). Bronchoalveolar lavage (BAL) samples were collected at various time points over 24 h post dosing from the cannulated trachea using Milli-Q water as BAL washing media. The average volume of ELF in mice was calculated by the ratio of urea concentrations in plasma and BAL samples. Concentrations of F365 and polymyxin B in plasma and BAL were analyzed by LC-MS/MS. Pharmacokinetic parameters were calculated using a non-compartment model with WinNonlin. For mouse, rat, and human plasma protein binding of F365 and polymyxin B, pooled plasma samples (n = 3) from each species were spiked with F365 or polymyxin B. The spiked plasma samples were subjected to ultrafiltration and the corresponding filtrates were analyzed by LC-MS/MS to determine the concentration of F365 and polymyxin B and the protein binding in each species.

[3] = tested on: P. aeruginosa PAM2035; type: cell-based, Pseudomonas aeruginosa; settings: nitrocefin hydrolysis, without Mg2+
Description: as §1
Activity of F365 and polymyxin B in the outer membrane permeabilization assay.
The outer and inner membranes of gram-negative bacteria are the sites of interaction and action of polymyxin antibiotics, respectively. These polycationic compounds bind to phosphate residues of lipid A and displace the magnesium and calcium ions that cross-bridge adjacent lipid A molecules thereby stabilizing the outer membrane. […]
as the main mechanism of action by polymyxin B and colistin. The outer membrane-permeabilizing effect of F365 at a wide range of concentrations was assessed by examining the rates of hydrolysis of a chromogenic β-lactam, nitrocefin, by intact cells of Pseudomonas aeruginosa. […]

[4] = tested on: P. aeruginosa PAM1626; assay: Efflux inhibition assay (Leu-Nap hydrolysis), efflux-deficient strain; type: cell-based, Pseudomonas aeruginosa
Description: as §1, §2, §3, §4

[5] = Acute toxicity in mice (maximum tolerated dose, IV bolus); type: in vivo, mouse; settings: mouse, in vivo, iv, single IV bolus dose, replicates 1-4; read-out: MTD, single replicate
Procedure, shortened: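 Female Swiss mice (7 weeks, 22–28 g) given single IV tail-vein bolus of lipopeptide in 0.9% saline, dosed as mg/kg free base. Clinical toxicity signs monitored over 0–24 h, most frequently in first 2 h.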

Compound	IC50, inhibition of efflux activity [1] [µg/mL]	AUC(0-∞) in ELF ([2]; mouse, sc, 40 mg/kg) [ng·h/mL]	Free AUC(0-∞) in ELF (estimated fAUCELF) ([2]; mouse, sc, 40 mg/kg) [ng·h/mL]	Total CL ([2]; mouse, sc, 40 mg/kg) [mL/min/kg]	half-life ([2]; mouse, sc, 40 mg/kg) [h]	half-life ([2]; rat, iv, 1 mg/kg) [h]	IC50 for membrane permeabilization [3] [µg/mL]	effect on the rate of Leu-Nap hydrolysis [4]	AUC(0-inf) ([2]; mouse, sc, 40 mg/kg) [ng·h/mL]	Cmax in ELF relative to polymyxin B ([2]; mouse, sc, 40 mg/kg) [fold]	urinary recovery relative to polymyxin B ([2]; rat) [fold]	AUC(0-inf) ([2]; rat, iv, 1 mg/kg) [ng·h/mL]	clearance ([2]; rat, iv, 1 mg/kg) [mL/min/kg]	MTD [5] [mg/kg]
Polymyxin B [reference compound]	7.6 ± 1.4	80000	10000	8.33	6.70	1.45	1.15 ± 0.22	no effect	–	–	–	–	–	–
CC[C@@H]1NC(=O)[C@@H](CC(C)C)NC(=O)[C@H](CCN)NC(=O)[C@@H](NC(=O)[C@H](CN)NC(=O)[C@@H](NC(=O)[C@H](CCN)NC(=O)c2ccc(Cl)cc2Cl)[C@@H](C)O)CCNC(=O)[C@H]([C@@H](C)O)NC(=O)[C@H](CCN)NC(=O)[C@H](CCN)NC1=O [Lipopeptide F365] (HELM PEPTIDE1{[O=C(c1ccc(Cl)cc1Cl)[*:2]].[Dab].T.[NC[C@H](N[*:1])C(=O)[*:2]].[Dab].[Dab].[dL].[Abu].[Dab].[Dab].T}$PEPTIDE1,PEPTIDE1,5:R3-11:R2$$$V2.0)	4.2 ± 1.5	–	86200	7.67	3.39	0.91	0.73 ± 0.07	no effect	86200	3	> 4	2400	7.67	13
CCCCCCCC(=O)N[C@@H](CCN)C(=O)N[C@H](C(=O)N[C@@H](CN)C(=O)N[C@H]1CCNC(=O)[C@H]([C@@H](C)O)NC(=O)[C@H](CCN)NC(=O)[C@H](CCN)NC(=O)[C@H](CC)NC(=O)[C@@H](CC(C)C)NC(=O)[C@H](CCN)NC1=O)[C@@H](C)O [Lipopeptide F287] (HELM PEPTIDE1{[CCCCCCCC(=O)[*:2]].[Dab].T.[NC[C@H](N[*:1])C(=O)[*:2]].[Dab].[Dab].[dL].[Abu].[Dab].[Dab].T}$PEPTIDE1,PEPTIDE1,5:R3-11:R2$$$V2.0)	–	–	–	–	–	–	–	–	–	–	–	–	–	6
